Test results as given in patent US10344060B2 (priority 2013, dated 2019).

biological target: hNav1.7 (Homo sapiens, UniProt Q15858); assay: cell-based; format: cell-based; conditions: Table 12; PatchXpress, tonic block; read-out: PX hNav1.7 Tonic IC50
Sequence (Q15858 whole entry): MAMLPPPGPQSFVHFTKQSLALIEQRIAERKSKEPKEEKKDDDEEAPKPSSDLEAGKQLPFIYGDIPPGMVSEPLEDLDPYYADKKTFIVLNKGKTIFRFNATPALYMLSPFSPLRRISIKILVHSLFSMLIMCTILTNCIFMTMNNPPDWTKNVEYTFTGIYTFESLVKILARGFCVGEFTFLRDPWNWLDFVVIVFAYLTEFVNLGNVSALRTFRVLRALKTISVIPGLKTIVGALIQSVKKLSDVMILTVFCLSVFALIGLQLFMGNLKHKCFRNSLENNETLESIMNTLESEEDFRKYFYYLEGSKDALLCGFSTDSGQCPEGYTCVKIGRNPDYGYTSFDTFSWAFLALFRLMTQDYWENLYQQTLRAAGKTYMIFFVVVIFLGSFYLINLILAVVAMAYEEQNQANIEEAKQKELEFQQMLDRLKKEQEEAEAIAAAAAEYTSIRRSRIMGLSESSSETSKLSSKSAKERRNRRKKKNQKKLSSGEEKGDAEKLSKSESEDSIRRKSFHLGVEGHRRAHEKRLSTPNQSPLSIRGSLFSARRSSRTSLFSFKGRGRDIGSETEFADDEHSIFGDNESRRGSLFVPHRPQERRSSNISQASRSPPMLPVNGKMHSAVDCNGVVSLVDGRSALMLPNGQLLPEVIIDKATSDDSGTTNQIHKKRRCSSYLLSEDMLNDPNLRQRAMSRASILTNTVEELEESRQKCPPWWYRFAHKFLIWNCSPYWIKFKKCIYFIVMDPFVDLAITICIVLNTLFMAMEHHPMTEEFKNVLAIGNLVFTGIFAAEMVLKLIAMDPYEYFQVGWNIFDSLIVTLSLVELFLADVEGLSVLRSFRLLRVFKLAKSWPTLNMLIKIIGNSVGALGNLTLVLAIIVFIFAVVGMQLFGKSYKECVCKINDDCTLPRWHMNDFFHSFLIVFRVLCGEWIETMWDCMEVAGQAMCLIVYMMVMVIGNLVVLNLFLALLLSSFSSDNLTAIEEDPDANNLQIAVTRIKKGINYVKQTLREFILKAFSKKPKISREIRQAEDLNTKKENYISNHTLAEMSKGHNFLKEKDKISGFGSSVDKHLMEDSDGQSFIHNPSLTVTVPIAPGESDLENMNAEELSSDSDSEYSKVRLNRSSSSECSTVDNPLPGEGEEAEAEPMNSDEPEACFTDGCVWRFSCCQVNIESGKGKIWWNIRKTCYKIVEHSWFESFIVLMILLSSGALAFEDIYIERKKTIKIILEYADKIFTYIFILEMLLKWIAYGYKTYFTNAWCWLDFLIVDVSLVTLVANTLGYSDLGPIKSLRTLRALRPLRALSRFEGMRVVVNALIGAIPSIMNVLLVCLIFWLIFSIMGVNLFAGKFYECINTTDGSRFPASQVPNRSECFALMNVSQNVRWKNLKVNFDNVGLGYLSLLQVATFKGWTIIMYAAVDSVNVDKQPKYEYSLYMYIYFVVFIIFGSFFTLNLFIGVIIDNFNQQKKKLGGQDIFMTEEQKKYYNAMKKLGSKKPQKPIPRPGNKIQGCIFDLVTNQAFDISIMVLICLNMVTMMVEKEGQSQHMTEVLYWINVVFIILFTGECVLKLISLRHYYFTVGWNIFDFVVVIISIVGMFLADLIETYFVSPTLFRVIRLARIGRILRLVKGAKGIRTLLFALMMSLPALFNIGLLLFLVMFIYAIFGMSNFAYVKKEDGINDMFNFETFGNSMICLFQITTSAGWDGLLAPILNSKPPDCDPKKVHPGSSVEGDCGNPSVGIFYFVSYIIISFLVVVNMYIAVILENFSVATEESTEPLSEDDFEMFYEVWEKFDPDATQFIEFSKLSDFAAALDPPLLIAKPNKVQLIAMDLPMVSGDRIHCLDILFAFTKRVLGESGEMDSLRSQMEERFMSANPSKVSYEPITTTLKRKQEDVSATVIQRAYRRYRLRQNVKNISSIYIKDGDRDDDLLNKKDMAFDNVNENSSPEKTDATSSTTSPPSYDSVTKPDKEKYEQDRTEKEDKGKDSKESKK

Row | SMILES | IC50
1 | C#CC[C@@H]1NC(=O)[C@@H]2CSSC[C@H](NC(=O)[C@H](CCC(=O)O)NC(=O)[C@@H](N)CC#N)C(=O)N[C@@H](CCC(N)=O)C(=O)N[C@@H](CCCCN)C(=O)N[C@@H](Cc3c[nH]c4ccccc34)C(=O)N[C@@H](CCCC)C(=O)N[C@@H](Cc3c[nH]c4ccccc34)C(=O)N[C@@H]([C@@H](C)O)C(=O)N[C@H]3CSSC[C@H](NC(=O)[C@H](CCCNC(=N)N)NC(=O)[C@H](CC(C)C)NC(=O)CNC1=O)C(=O)N[C@@H](CCCCN)C(=O)N[C@@H](CC(C)C)C(=O)N[C@@H](Cc1c[nH]c4ccccc14)C(=O)N[C@H](C(=O)N[C@@H](CCCNC(=N)N)C(=O)N[C@@H](CCCCN)C(=O)N[C@@H](CCC(=O)O)C(=O)N[C@H](C(N)=O)[C@@H](C)CC)CSSC[C@H](NC(=O)[C@H](CCC(=O)O)NC(=O)[C@H](CCCNC(=N)N)NC(=O)[C@H](CCC(=O)O)NC(=O)[C@H](CCC(=O)O)NC(=O)[C@H](CC(=O)O)NC3=O)C(=O)N2 [compound 757] | > 1000 nM
2 | C#CC[C@@H]1NC(=O)[C@@H]2CSSC[C@H](NC(=O)[C@H](CCC(=O)O)NC(=O)[C@H](CCC)NC(=O)[C@@H](N)CCC(=O)O)C(=O)N[C@@H](CCC(N)=O)C(=O)N[C@@H](CCCCN)C(=O)N[C@@H](Cc3c[nH]c4ccccc34)C(=O)N[C@@H](CCCC)C(=O)N[C@@H](Cc3c[nH]c4ccccc34)C(=O)N[C@@H]([C@@H](C)O)C(=O)N[C@H]3CSSC[C@H](NC(=O)[C@H](CCCNC(=N)N)NC(=O)[C@H](CC(C)C)NC(=O)CNC1=O)C(=O)N[C@@H](CCCCN)C(=O)N[C@@H](CC(C)C)C(=O)N[C@@H](Cc1c[nH]c4ccccc14)C(=O)N[C@H](C(=O)N[C@@H](CCCNC(=N)N)C(=O)N[C@@H](CCCCN)C(=O)N[C@@H](CCC(=O)O)C(=O)N[C@H](C(N)=O)[C@@H](C)CC)CSSC[C@H](NC(=O)[C@H](C)NC(=O)[C@H](CCCNC(=N)N)NC(=O)[C@H](CCCCN)NC(=O)[C@H](CCC(=O)O)NC(=O)[C@H](CC(=O)O)NC3=O)C(=O)N2 [compound 772] | 15.2 nM
3 | C#CC[C@H](N)C(=O)N[C@@H](Cc1ccc(O)cc1)C(=O)N[C@H]1CSSC[C@@H]2NC(=O)[C@@H]3CSSC[C@@H](C(=O)N[C@@H](CCCNC(=N)N)C(=O)N[C@@H](CCCCN)C(=O)N[C@@H](CCC(=O)O)C(=O)N[C@H](C(N)=O)[C@@H](C)CC)NC(=O)[C@H](Cc4c[nH]c5ccccc45)NC(=O)[C@H](CC(C)C)NC(=O)[C@H](CCC(N)=O)NC(=O)[C@H](CSSC[C@H](NC(=O)[C@H]([C@@H](C)O)NC(=O)[C@H](Cc4c[nH]c5ccccc45)NC(=O)[C@H](CCCC)NC(=O)[C@H](Cc4c[nH]c5ccccc45)NC(=O)[C@H](CCCCN)NC(=O)[C@H](CCC(N)=O)NC1=O)C(=O)N[C@@H](CC(=O)O)C(=O)N[C@@H](CO)C(=O)N[C@@H](CCCCN)C(=O)N[C@@H](CCCNC(=N)N)C(=O)N[C@@H](C)C(=O)N3)NC(=O)[C@H](CCCNC(=N)N)NC(=O)[C@H](CC(C)C)NC(=O)CNC(=O)[C@H](CCC(=O)O)NC2=O [compound 804] | 35.3 nM
4 | C#CC[C@H](N)C(=O)N[C@@H](Cc1ccc(O)cc1)C(=O)N[C@H]1CSSC[C@@H]2NC(=O)[C@@H]3CSSC[C@@H](C(=O)N[C@@H](CCCNC(=N)N)C(=O)N[C@@H](CCCCN)C(=O)N[C@@H](CCC(=O)O)C(=O)N[C@H](C(N)=O)[C@@H](C)CC)NC(=O)[C@H](Cc4c[nH]c5ccccc45)NC(=O)[C@H](CC(C)C)NC(=O)[C@H](CCCCN)NC(=O)[C@H](CSSC[C@H](NC(=O)[C@H]([C@@H](C)O)NC(=O)[C@H](Cc4c[nH]c5ccccc45)NC(=O)[C@H](CCCC)NC(=O)[C@H](Cc4c[nH]c5ccccc45)NC(=O)[C@H](CCC(N)=O)NC(=O)[C@H](CCC(N)=O)NC1=O)C(=O)N[C@@H](CC(=O)O)C(=O)N[C@@H](CO)C(=O)N[C@@H](CCCCN)C(=O)N[C@@H](CCCNC(N)=O)C(=O)N[C@@H](C)C(=O)N3)NC(=O)[C@H](CCCNC(=N)N)NC(=O)[C@H](CC(C)C)NC(=O)CNC(=O)[C@H](CCC(=O)O)NC2=O [compound 807] | 20.9 nM
